Source: article PMC7614683, “A small molecule PI3Kα activator for cardioprotection and neuroregeneration” (Nature, 2023)
Read-outs that look alike come from different tables or passages of the source.

Columns and labels:
Test in all cases: SelectScreen Z-LYTE kinase activity assay (SI Table 6)
Format in all cases: biochemical
[1] = biological target: protein kinases of the Z-LYTE panel (Homo sapiens, UniProt O75116)
Procedure, shortened: (§1)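 A counterscreen of 133 protein and 7 lipid kinases was run with one compound concentration, 1 μM 1938, in SelectScreen Adapta, Lantha or Z-LYTE assays.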

[2] = biological target: protein kinases of the Z-LYTE panel (Homo sapiens, UniProt P00519)
Sequence of protein kinases of the Z-LYTE panel (Homo sapiens, UniProt P00519) (P00519 whole entry): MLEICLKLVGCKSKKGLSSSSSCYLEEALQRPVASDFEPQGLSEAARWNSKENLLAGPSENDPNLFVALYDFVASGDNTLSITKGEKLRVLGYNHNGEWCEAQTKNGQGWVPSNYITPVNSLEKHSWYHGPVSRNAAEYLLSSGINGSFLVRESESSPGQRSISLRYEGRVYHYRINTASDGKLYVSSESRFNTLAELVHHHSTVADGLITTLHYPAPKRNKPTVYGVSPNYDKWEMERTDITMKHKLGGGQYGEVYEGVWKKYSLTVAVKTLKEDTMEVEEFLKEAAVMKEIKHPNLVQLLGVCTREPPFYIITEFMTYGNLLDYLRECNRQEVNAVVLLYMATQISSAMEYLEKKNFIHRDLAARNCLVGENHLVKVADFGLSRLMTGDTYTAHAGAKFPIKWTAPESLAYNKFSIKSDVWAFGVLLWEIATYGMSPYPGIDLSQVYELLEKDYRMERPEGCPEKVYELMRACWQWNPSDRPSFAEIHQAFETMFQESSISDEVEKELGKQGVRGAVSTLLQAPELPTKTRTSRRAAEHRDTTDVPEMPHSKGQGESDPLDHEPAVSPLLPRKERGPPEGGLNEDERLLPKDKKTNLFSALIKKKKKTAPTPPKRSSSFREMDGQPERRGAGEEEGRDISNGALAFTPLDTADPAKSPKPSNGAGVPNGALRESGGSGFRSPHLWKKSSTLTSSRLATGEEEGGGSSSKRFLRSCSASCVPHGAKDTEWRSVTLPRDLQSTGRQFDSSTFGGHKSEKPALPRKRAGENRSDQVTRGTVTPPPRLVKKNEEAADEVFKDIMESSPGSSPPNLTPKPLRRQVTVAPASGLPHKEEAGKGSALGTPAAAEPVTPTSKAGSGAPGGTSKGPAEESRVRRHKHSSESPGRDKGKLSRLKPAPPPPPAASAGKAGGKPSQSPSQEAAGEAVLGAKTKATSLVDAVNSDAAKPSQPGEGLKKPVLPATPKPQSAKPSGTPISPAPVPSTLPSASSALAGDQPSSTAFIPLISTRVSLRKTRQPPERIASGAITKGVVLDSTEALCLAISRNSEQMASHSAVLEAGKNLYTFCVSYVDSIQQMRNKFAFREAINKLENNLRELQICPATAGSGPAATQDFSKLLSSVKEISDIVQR
Procedure, shortened: as §1

[3] = biological target: protein kinases of the Z-LYTE panel (Homo sapiens, UniProt P00533)
Procedure, shortened: as §1

[4] = biological target: protein kinases of the Z-LYTE panel (Homo sapiens, UniProt P07333)
Sequence of protein kinases of the Z-LYTE panel (Homo sapiens, UniProt P07333) (P07333 20-972): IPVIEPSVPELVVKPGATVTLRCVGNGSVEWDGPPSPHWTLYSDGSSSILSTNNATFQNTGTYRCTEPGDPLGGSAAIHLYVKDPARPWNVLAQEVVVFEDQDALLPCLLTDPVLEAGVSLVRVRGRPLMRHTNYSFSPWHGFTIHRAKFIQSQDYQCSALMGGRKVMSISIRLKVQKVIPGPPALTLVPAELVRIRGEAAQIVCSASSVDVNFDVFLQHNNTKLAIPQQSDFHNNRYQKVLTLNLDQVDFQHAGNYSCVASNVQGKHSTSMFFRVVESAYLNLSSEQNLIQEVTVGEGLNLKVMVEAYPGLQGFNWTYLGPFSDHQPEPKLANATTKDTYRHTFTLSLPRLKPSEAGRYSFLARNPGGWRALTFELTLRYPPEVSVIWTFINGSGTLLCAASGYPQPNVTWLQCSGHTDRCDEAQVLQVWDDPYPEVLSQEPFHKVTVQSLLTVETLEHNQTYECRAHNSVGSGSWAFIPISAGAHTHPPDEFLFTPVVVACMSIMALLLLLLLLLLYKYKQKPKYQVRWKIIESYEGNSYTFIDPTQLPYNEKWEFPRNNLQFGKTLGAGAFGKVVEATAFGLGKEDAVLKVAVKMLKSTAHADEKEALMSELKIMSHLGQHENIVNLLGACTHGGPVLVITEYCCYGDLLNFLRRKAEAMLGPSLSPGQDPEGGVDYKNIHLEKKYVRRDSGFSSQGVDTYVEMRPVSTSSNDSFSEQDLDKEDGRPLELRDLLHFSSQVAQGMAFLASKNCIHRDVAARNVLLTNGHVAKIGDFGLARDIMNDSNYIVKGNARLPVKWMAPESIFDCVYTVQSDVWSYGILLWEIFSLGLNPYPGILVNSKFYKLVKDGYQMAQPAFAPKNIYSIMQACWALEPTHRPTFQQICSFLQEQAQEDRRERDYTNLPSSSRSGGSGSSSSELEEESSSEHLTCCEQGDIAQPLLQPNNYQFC
Procedure, shortened: as §1

[5] = biological target: protein kinases of the Z-LYTE panel (Homo sapiens, UniProt P07947)
Procedure, shortened: as §1

[6] = biological target: protein kinases of the Z-LYTE panel (Homo sapiens, UniProt P23458)
Procedure, shortened: as §1

[7] = biological target: protein kinases of the Z-LYTE panel (Homo sapiens, UniProt P42684)
Sequence of protein kinases of the Z-LYTE panel (Homo sapiens, UniProt P42684) (P42684 whole entry): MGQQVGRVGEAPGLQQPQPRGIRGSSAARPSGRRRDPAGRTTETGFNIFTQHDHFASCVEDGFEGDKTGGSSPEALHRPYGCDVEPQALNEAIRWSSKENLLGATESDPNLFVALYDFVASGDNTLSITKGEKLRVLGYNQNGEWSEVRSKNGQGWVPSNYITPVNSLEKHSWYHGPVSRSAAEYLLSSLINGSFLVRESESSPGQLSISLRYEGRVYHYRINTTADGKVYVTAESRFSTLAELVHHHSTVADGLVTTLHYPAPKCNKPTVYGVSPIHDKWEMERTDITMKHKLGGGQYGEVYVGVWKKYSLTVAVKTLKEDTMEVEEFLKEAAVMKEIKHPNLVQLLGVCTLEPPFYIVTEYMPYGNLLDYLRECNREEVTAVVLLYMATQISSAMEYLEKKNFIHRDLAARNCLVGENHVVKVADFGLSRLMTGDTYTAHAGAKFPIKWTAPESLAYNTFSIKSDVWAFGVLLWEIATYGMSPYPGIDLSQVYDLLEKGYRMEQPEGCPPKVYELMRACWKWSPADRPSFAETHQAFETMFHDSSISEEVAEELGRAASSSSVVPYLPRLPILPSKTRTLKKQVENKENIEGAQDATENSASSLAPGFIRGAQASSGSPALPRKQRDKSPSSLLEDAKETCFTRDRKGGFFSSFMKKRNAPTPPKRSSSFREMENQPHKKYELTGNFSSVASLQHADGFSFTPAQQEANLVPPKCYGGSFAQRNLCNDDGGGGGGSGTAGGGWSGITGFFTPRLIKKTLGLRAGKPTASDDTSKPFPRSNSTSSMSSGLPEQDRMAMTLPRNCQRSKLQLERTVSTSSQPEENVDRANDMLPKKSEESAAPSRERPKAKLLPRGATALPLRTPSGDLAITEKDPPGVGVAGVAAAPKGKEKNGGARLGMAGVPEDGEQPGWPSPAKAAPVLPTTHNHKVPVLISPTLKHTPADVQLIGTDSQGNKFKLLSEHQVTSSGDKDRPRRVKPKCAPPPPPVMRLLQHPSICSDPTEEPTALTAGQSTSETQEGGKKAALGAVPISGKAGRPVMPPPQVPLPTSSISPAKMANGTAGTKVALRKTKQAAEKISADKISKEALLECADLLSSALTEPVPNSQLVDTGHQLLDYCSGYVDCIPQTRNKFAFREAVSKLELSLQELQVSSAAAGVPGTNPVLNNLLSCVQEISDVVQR
Procedure, shortened: as §1

[8] = biological target: T1, protein kinases of the Z-LYTE panel (Homo sapiens, UniProt P54760)
T1 sequence (P54760 16-987): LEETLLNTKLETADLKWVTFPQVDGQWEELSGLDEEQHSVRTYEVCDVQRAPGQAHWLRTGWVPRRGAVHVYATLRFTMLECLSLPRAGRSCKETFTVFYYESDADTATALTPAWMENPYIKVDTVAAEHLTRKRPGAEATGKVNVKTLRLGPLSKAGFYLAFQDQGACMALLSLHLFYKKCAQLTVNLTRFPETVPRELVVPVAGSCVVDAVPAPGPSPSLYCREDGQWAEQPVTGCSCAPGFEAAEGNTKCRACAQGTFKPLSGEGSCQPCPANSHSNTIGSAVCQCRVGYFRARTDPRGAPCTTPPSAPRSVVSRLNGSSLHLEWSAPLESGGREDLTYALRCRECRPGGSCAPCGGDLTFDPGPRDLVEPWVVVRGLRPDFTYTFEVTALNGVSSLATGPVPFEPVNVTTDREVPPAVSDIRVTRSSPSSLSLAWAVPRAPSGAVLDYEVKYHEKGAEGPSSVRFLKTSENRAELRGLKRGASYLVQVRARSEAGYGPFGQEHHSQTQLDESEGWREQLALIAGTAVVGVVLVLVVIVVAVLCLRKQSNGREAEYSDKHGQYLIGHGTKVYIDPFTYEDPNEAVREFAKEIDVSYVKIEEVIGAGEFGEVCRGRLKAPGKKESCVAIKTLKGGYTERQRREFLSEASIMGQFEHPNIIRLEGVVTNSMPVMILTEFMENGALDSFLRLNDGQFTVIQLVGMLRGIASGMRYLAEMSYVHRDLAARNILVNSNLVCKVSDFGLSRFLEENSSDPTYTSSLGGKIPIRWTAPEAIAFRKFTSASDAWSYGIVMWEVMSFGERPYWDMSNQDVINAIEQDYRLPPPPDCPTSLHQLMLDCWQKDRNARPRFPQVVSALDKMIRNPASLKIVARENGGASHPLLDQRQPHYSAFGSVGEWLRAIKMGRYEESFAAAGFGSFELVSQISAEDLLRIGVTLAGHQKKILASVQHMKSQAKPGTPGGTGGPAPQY
Procedure, shortened: as §1

[9] = biological target: protein kinases of the Z-LYTE panel (Homo sapiens, UniProt Q9HCP0)
Sequence of protein kinases of the Z-LYTE panel (Homo sapiens, UniProt Q9HCP0) (Q9HCP0 whole entry): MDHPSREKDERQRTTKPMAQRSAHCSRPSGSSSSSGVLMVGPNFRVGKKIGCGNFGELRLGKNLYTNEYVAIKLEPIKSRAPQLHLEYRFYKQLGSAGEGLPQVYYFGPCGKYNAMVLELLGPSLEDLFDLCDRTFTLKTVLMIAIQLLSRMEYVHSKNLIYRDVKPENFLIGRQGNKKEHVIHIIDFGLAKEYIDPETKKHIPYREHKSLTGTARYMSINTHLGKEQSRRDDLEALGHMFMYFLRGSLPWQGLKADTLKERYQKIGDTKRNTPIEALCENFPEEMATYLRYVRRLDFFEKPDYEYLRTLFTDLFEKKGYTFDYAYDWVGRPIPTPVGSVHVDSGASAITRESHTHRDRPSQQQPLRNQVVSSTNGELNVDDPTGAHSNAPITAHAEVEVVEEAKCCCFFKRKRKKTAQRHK
Procedure, shortened: as §1

[10] = biological target: protein kinases of the Z-LYTE panel (Homo sapiens, UniProt Q9P0L2)
Procedure, shortened: as §1

Sequence of protein kinases of the Z-LYTE panel (Homo sapiens, UniProt O75116) (O75116 whole entry): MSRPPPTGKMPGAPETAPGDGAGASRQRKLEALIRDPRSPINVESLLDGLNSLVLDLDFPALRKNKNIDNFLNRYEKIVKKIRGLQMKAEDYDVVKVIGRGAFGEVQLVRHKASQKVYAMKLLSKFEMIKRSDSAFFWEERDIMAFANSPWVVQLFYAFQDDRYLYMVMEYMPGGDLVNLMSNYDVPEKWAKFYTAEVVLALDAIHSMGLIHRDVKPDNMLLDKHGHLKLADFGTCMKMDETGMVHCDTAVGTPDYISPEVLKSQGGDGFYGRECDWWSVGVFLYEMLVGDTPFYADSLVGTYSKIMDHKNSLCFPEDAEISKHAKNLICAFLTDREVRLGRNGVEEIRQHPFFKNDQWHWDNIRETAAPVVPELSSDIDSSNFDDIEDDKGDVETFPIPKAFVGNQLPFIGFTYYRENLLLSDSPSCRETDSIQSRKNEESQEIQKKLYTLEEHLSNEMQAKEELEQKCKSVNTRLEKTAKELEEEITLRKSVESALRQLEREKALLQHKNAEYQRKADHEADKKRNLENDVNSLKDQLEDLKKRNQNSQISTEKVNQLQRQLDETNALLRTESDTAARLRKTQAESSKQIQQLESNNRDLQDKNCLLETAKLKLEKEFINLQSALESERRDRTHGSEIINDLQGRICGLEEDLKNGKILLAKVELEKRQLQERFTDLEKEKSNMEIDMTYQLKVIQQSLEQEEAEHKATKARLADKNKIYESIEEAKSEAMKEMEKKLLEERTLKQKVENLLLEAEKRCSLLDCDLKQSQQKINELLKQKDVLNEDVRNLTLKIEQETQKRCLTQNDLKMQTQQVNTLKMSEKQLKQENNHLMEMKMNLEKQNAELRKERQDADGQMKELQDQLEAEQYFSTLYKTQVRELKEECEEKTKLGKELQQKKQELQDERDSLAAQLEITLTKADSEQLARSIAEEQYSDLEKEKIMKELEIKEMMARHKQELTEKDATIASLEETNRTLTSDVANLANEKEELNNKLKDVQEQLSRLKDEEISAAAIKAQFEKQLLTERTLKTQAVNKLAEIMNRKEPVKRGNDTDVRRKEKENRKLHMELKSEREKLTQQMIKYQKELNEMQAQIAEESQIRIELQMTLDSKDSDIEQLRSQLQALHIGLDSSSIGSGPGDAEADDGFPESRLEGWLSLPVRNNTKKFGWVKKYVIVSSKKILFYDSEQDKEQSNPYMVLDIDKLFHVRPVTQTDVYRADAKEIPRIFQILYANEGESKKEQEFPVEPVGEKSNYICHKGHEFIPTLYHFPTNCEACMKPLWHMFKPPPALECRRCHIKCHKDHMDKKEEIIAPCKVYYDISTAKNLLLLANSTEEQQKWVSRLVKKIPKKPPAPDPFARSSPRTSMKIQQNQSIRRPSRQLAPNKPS

CCN1CCN(c2ccc(Nc3cc(Nc4cccc5c4N(C(C)=O)CC5)ccn3)cc2)CC1 [Compound 1938] showed an inhibition at 1 µM ([1]; read-out: % Inhibition Point 1) of 1.58%, an inhibition at 1 µM ([1]; read-out: % Inhibition Point 2) of 0.0356% and an inhibition at 1 µM ([1]; read-out: % Inhibition mean) of 0.807%. For the same compound, the inhibition at 1 µM ([2]; read-out: % Inhibition Point 1) was 16%, the inhibition at 1 µM ([2]; read-out: % Inhibition Point 2) was 17% and the inhibition at 1 µM ([2]; read-out: % Inhibition mean) was 16%. For the same compound, the inhibition at 1 µM ([3]; read-out: % Inhibition Point 1) was 18%, the inhibition at 1 µM ([3]; read-out: % Inhibition Point 2) was 17% and the inhibition at 1 µM ([3]; read-out: % Inhibition mean) was 18%. For the same compound, the inhibition at 1 µM ([4]; read-out: % Inhibition Point 1) was 15%, the inhibition at 1 µM ([4]; read-out: % Inhibition Point 2) was 15% and the inhibition at 1 µM ([4]; read-out: % Inhibition mean) was 15%. It also gave an inhibition at 1 µM ([5]; read-out: % Inhibition Point 1) of 27%, an inhibition at 1 µM ([5]; read-out: % Inhibition Point 2) of 30% and an inhibition at 1 µM ([5]; read-out: % Inhibition mean) of 29%. The inhibition at 1 µM ([6]; read-out: % Inhibition Point 1) was -2%, the inhibition at 1 µM ([6]; read-out: % Inhibition Point 2) was -2% and the inhibition at 1 µM ([6]; read-out: % Inhibition mean) was -2%. The inhibition at 1 µM ([7]; read-out: % Inhibition Point 1) was 22%, the inhibition at 1 µM ([7]; read-out: % Inhibition Point 2) was 20% and the inhibition at 1 µM ([7]; read-out: % Inhibition mean) was 21%. The inhibition at 1 µM ([8]; read-out: % Inhibition Point 1) was 10%, the inhibition at 1 µM ([8]; read-out: % Inhibition Point 2) was -1.75% and the inhibition at 1 µM ([8]; read-out: % Inhibition mean) was 4%. The inhibition at 1 µM ([9]; read-out: % Inhibition Point 1) was 0.622%, the inhibition at 1 µM ([9]; read-out: % Inhibition Point 2) was -0.215% and the inhibition at 1 µM ([9]; read-out: % Inhibition mean) was 0.204%. For the same compound, the inhibition at 1 µM ([10]; read-out: % Inhibition Point 1) was 5.55%, the inhibition at 1 µM ([10]; read-out: % Inhibition Point 2) was 3.46% and the inhibition at 1 µM ([10]; read-out: % Inhibition mean) was 4.5%.
